Reference: patent publication US8198327B2, “Fatty acid amides and uses thereof” (Yissum Research Development Company of the Hebrew …, priority 2008, dated 2012)
“Also recorded” adds a separate entry of the source. Where two headings read alike, the source gives them in different places.

Experiments:
[1] = system: MC3T3 E1 osteoblastic cells; assay: MC3T3 E1 osteoblastic cell assay (cell number / proliferation); format: cell-based
Description: FIGS. 1(A)-1(F) are graphical depictions of screening of fatty acid derivatives identified in brain for proliferative activity in MC3T3 E1 osteoblastic cells. (A), oleoyl-serine (HU-639); (B), palmitoyl-serine; (C), arachidonoyl-serine (HU-362); (D), arachidonoyl-ethanolamide; (E), palmitoyl-ethanolamide; (F), 2-arachidonoylglycerol. Data are mean±SE obtained in 3 culture wells per condition.
FIG. 9 represents methylated oleoyl-serine (HU-639) derivatives α-methyl oleoyl serine (HU-671) and 2-methyl-oleoyl serine (HU-681)) stimulation of MC3T3 E1 osteoblastic cell number at concentration 10- to 100-fold lower than HU-639. Data are mean±SE obtained in 3 culture wells per condition. *, ANOVA, p<0.05 vs. ligand-free control (Cntl).
(§1) Several lipid compounds present in the brain stimulated the proliferation of MC3T3 E1 osteoblast-like cells in vitro (FIG. 1). […] The HU-639 mitogenic effect was confirmed measuring BrdU incorporation in the MC3T3 E1 cells and in primary calvarial osteoblasts (FIG. 4A). […] Typical of some osteoblast mitogenic agents [Miguel et al, 2005], the dose-response curves representing oleoyl-serine (HU-639) activity in culture are bell shaped, with the peak stimulation of cell number followed by reversal of the effect to baseline levels (FIGS. 4A, 4B).
The oleoyl-serine derivatives α-methyl oleoyl serine (HU-671) and 2-methyl-oleoyl serine (HU-681) were tested in the MC3T3 E1 osteoblastic cell assay, HU-671 and HU-681 stimulated cell number with respective peak effects at 10^−12 M and 10^−13 M as compared to 10^−11 M of the parent HU-639 molecule (FIG. 9).

MC3T3 E1 cells = assay: BrdU incorporation in MC3T3 E1 cells; format: cell-based
Description: as §1

[2] = system: primary calvarial osteoblasts; assay: BrdU incorporation in primary calvarial osteoblasts; format: cell-based
Description: as §1

Erk1/2 phosphorylation [3] = assay: Erk1/2 phosphorylation in osteoblasts; format: cell-based
Description: (§2) FIGS. 4(A)-4(E) represents signaling of oleoyl-serine (HU-639) in osteoblasts. *, ANOVA, p<0.05 vs. oleoyl-serine (HU-639)-free control (Cntl).
as §1

osteoclasts = assay: Osteoclast survival in ex vivo culture of bone marrow-derived monocytes with M-CSF and RANKL; format: cell-based, mouse; conditions: 4 days with M-CSF and RANKL
Description: (§3) (A), number of intact osteoclasts with the use of oleoyl-serine (HU-639); (B), number of apoptotic osteoclasts; (C), representative photomicrograph of culture oleoyl-serine (HU-639)-free control culture; (D), representative photomicrograph of culture treated with 10^−10 M oleoyl-serine (HU-639); (E), immunoblot analysis of Erk1/2 phosphorylation in preosteoclast-like RAW 264.7 cells. (F), RT-PCR analysis of RANKL and OPG expression in bone marrow-derived primary stromal cells. Quantitative data are mean±SE obtained in 3 culture wells per condition. Arrows indicate, apoptotic osteoclasts; *, ANOVA, p<0.05 vs. oleoyl-serine (HU-639)-free control (Cntl).
(§4) This inhibition is likely to have a restraining effect on osteoclast survival [Kim et al, 2009].

Erk1/2 phosphorylation [4] = assay: Immunoblot analysis of Erk1/2 phosphorylation in preosteoclast-like RAW 264.7 cells; format: cell-based
Description: as §3, §4

RANKL expression = assay: RT-PCR analysis of RANKL expression in bone marrow-derived primary stromal cells; format: cell-based
Description: as §3, §4

[5] = system: ovariectomized (OVX) mice; assay: Ovariectomy (OVX) mouse model of osteoporosis, microCT and histomorphometry of distal femoral metaphysis; format: in vivo
Method: FIG. 6 oleoyl-serine (HU-639) rescues ovariectomy (OVX)-induced trabecular bone loss in mouse distal femoral metaphysis. Mice were OVXed or sham-OVXed and left untreated for 6 weeks to allow for bone loss. Thereafter, OVXed mice were treated by i.p. administration of oleoyl-serine (HU-639), 5 mg/Kg/day for 6 weeks and subjected to qualitative and quantitative analysis by microcomputed tomography. BV/TV, trabecular bone volume density. VEH, ethanol/emulphor/saline solvent. Data are mean±SE obtained in 6-8 mice per condition.
VEH, ethanol/emulphore/saline solvent. Histomorphometric analysis based on vital labeling of newly formed bone by calcein. Data are mean±SE obtained in 6-8 mice per condition. *, ANOVA, p<0.05 vs. Sham-OVX.
VEH, ethanol/emulphore/saline solvent. Osteoclast counts were based on osteoclast specific staining with tartrate-resistant acid phosphatase. Data are mean±SE obtained in 6-8 mice per condition. *, ANOVA, p<0.05 vs. Sham-OVX and OVX/VEH.
Based on the in vitro screening, the in vivo skeletal activity of oleoyl-serine (HU-639) in an ovariectomy (removal of ovaries; OVX) mouse model, the most widely used animal model for osteoporosis, was analyzed. Using this experimental system for testing bone anabolic activity, OVXed mice are left untreated to allow for bone loss to occur, followed by a treatment period intended for reversal of the bone loss [Alexander et al, 2001]. […] To further elucidate the process leading to the oleoyl-serine (HU-639) rescue of OVX-induced bone loss, the same mice were subjected to an analysis of bone formation and resorption by computerized histomorphometry (HM).

osteoblasts = assay: Blockade of oleoyl-serine (HU-639) mitogenic activity in osteoblasts; format: cell-based; conditions: MEK inhibitor, inhibition of Erk1/2 phosphorylation
Description: as §2, §1

For CCCCCCCC/C=C\CCCCCCCC(=O)NC(C)(CO)C(=O)O (racemic) [HU-671, N-oleoly α-methyl-DL-serine], the “concentration of peak effect on cell number” value (from here on “concentration of peak effect”) [1] was 10^−12 M.

For CCCCCCCC/C=C\CCCCCCCC(=O)N[C@@H](CO)C(=O)O [HU-639, N-Oleoyl L-Serine], the “concentration of peak effect” value [1] was 10^−11 M, the “osteoblastic proliferation activity / potency” value [1] was “highest potency” and the cell number ([1]; at 10^−11 M concentration) was “more than doubling cell number”. The “osteoblastic proliferation activity / potency” value ([1]; listed as oleoyl serine) was “considerably more potent”, the “shape of dose-response curves in culture” value (MC3T3 E1 cells; FIGS. 4A, 4B, peak stimulation of cell number followed by reversal to baseline) was “bell shaped” and the “mitogenic effect by BrdU incorporation” value (MC3T3 E1 cells; MC3T3 E1 cells) was “confirmed”. The “mitogenic effect by BrdU incorporation” value [2] was “confirmed”, the Erk1/2 phosphorylation (Erk1/2 phosphorylation [3]) was “stimulates Erk1/2 phosphorylation” and the osteoclast apoptosis (osteoclasts) was “stimulating osteoclast apoptosis”. For the same compound, the “osteoclast survival (number of intact osteoclasts)” value (osteoclasts) was “inhibition of osteoclast survival; also recorded: inhibits osteoclast survival”, the Erk phosphorylation (Erk1/2 phosphorylation [4]) was “reduced Erk phosphorylation, mainly p42” and the RANKL expression (RANKL expression) was “inhibits RANKL expression”. The “reversal of bone loss compared with parathyroid hormone (1-34)” value ([5]; comparison with literature [Alexander et al, 2001]) was “greater than the reversal of bone volumetric density by parathyroid hormone (1-34)”, the “bone resorption, osteoclast counts (TRAP staining)” value ([5]; distal femoral metaphyseal trabecular bone) was “decreasing of osteoclast number; also recorded: markedly inhibited bone resorption” and the “mineral appositional rate (MAR)” value ([5]; histomorphometry, calcein labeling) was “stimulated mineral appositional rate”. For the same compound, the “overall trabecular bone formation” value ([5]; histomorphometry, compared to sham- and vehicle-treated OVXed controls) was “stimulation of trabecular bone formation; also recorded: stimulation of overall bone formation” and the “difference in trabecular bone volume density (BV/TV) vs controls” value ([5]; vs vehicle treated OVXed controls (so in the source)) was “statistically insignificant”.

CCCCCCCC/C=C\CCCCCCC(C)C(=O)N[C@@H](CO)C(=O)O (stereo partly drawn) [HU-681, 2-Methyl Oleoyl-L-Serine] was tested, and the “concentration of peak effect” value [1] was 10^−13 M.

COc1cccc(-c2cc(=O)c3ccccc3o2)c1N [PD98059] was tested, and the “blockade of oleoyl-serine (HU-639) mitogenic activity” value (osteoblasts) was “blocks the oleoyl-serine (HU-639) mitogenic activity dose-dependently”.

For CCCCC/C=C\C/C=C\C/C=C\C/C=C\CCCC(=O)NCCO [anandamide, arachidonoyl ethanolamide, reference compound], the “osteoblastic proliferation activity / potency” value [1] was “some osteoblastic proliferation activity”.

With CCCCC/C=C\C/C=C\C/C=C\C/C=C\CCCC(=O)N[C@@H](CO)C(=O)O [arachidonoyl serine, N-arachidonoyl-serine, reference compound] the “osteoblastic proliferation activity / potency” value [1] was “some osteoblastic proliferation activity”.

CCCCCCCCCCCCCCCC(=O)NCCO [palmitoyl ethanolamide, reference compound] was tested, and the “osteoblastic proliferation activity / potency” value [1] was “some osteoblastic proliferation activity”.
